Reference: patent US6391921B1 (priority 2000, dated 2002)

Key:
BTK = target: T1, BTK (Homo sapiens, UniProt Q06187); experiment: BTK tyrosine kinase assay; type: biochemical; conditions: 1 hour exposure
T1 construct: made in house; host or cells: Sf21 insect cells (baculovirus)
Method: (§1) Sf21 (IPLB-SF21-AE) cells derived from the ovarian tissue of the fall armyworm Spodotera frugiperda, were obtained from Invitrogen and maintained at 26-28° C. in Grace's insect cell medium supplemented with 10% FBS and 1.0% antibiotic/antimycotic (GIBCO-BRL). Stock cells were maintained in suspension at 0.2-1.6×10^6/ml in 600 ml total culture volume in 1 L Bellco spinner flasks at 60-90 rpm. Cell viability was maintained at 95-100% as determined by trypan blue dye exclusion.
(§2) Sf21 cells were infected with a baculovirus expression vector for BTK or SYK, as previously described (refs 18 and 19). […]
(§3) Following electrophoresis, kinase gels were dried onto Whatman 3M filter paper and subjected to phosphoimaging on a Molecular Imager (Bio-Rad, Hercules, Calif.) as well as autoradiography on film. […] For each drug concentration, a BTK or SYK kinase activity index was determined by comparing the ratios of the kinase activity in phosphorimager units (PIU) and density of the protein bands in densitometric scanning units (DSU) to those of the baseline sample and using the formula: Activity Index=[PIU of kinase band/DSU of BTK/SYK protein band]test sample: [PIU of kinase band/DSU of BTK/SYK protein band]baseline control sample.

SYK = target: T2, SYK (Homo sapiens, UniProt P43405); experiment: SYK tyrosine kinase assay; type: biochemical; conditions: 1 hour exposure
T2 construct: made in house; host or cells: Sf21 insect cells (baculovirus)
Method: as §1, §2, §3

[1] = target: T3, Src family tyrosine kinase HCK (Homo sapiens, UniProt P08631); experiment: HCK kinase assay (immunoprecipitated from HCK-transfected COS-7 cells); type: biochemical; conditions: FIG. 1C; 1 hour exposure
T3 construct: expressed in transfected cells; host or cells: COS-7 cells transfected with pSV7c-HCK; immunoprecipitated with anti-HCK antibody
T3 sequence (P08631 whole entry): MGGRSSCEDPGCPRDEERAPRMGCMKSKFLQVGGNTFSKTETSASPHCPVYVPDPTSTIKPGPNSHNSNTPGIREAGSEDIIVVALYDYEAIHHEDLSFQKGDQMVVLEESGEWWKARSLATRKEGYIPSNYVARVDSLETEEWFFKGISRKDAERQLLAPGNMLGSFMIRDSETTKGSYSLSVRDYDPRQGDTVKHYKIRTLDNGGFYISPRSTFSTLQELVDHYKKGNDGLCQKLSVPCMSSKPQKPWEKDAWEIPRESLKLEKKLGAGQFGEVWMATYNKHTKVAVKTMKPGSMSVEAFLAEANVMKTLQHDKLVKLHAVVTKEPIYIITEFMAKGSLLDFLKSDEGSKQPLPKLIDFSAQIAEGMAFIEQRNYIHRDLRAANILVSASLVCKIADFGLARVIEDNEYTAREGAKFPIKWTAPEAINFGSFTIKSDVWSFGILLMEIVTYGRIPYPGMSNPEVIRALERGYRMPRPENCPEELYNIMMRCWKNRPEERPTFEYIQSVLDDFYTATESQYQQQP
Method: For HCK kinase assays, HCK-transfected COS-7 cells were used. The cloning and expression of HCK in COS-7 cells has been described previously (ref 18). The pSV7c-HCK plasmid was transfected into 2×10^6 COS-7 cells using Lipofectamine (GIBCO/BRL), and the cells were harvested 48 hours later. The cells were lysed in NP-40 buffer and HCK was immunoprecipitated from the whole cell lysates with an anti-HCK antibody. Kinase assays were performed following a 1 hour exposure of the purified (BTK, SYK) or immunoprecipitated (HCK) tyrosine kinases to the test compound, as described in detail elsewhere (refs 18-22). Following electrophoresis, kinase gels were dried onto Whatman 3M filter paper and subjected to phosphoimaging on a Molecular Imager (Bio-Rad, Hercules, Calif.) as well as autoradiography on film. […] For each drug concentration, a BTK or SYK kinase activity index was determined by comparing the ratios of the kinase activity in phosphorimager units (PIU) and density of the protein bands in densitometric scanning units (DSU) to those of the baseline sample and using the formula: Activity Index=[PIU of kinase band/DSU of BTK/SYK protein band]test sample: [PIU of kinase band/DSU of BTK/SYK protein band]baseline control sample.

skh-1 mice = experiment: UVB-irradiated skin edema (skinfold thickness); type: in vivo; conditions: 180 mJ/cm^2 UVB
Method: Mice (skh-1) were treated daily with 20 mg/kg i.p. bolus injections of compound D-58 from day −2 (i. e. 2 days prior to UVB exposure) until the termination of the experiment. Anesthetized mice received UVB radiations to a 2.0 cm^2 area on their dorsal surface. This area was painted either with the test compound (1.5 mg/cm^2) in drug receiving mice, or with vehicle in control mice 15 minutes before irradiation. The distance between UVB lamps and surface receiving irradiation was 20 cm. The final radiation dose received by skh-1 hairless mice was 180 mJ/cm^2 which is approximately four times higher than the minimal erythema dose (MED) (ref 29) in these mice. Skinfold thickness of the back of the mice was recorded prior to, and on each day after UVB exposure for five days with a digital thickness gauge (Mitutoyo Co., Plainfield, N.J.) which measures the skinfold thickness in a 0-10 mm range with an accuracy of 0.015 mm. […] For this purpose female, hairless, albino skh-1 mice were exposed to 180 mJ/cm^2 UVB light and their skinfold thickness, as a parameter of acute inflammation, was measured on days 1 through 5 following irradiation. […] The data points represent the mean±SEM values (n=5 mice). *p<0.05 and **p<0.001 compared to vehicle-treated UVB irradiated controls were determined by Student's t test.

T1 sequence (Q06187 whole entry, species assumed): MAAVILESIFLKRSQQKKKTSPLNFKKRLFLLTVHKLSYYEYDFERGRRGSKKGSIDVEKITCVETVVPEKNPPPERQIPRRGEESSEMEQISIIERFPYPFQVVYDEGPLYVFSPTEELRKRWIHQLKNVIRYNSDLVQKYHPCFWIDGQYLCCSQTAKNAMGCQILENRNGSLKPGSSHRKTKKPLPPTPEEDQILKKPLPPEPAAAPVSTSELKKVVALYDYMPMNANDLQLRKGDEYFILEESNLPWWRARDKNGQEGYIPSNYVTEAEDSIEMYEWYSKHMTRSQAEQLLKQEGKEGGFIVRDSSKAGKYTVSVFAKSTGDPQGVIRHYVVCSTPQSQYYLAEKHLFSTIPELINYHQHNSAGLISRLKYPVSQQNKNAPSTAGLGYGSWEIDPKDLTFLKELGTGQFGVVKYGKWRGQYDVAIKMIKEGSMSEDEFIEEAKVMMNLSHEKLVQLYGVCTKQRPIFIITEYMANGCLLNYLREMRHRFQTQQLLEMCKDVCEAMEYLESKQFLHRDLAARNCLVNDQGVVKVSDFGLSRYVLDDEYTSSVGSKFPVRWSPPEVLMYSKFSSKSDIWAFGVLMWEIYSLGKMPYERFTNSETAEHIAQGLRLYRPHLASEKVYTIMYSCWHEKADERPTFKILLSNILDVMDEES

Question: Which results are given for `COc1ccc(CC(=O)c2c(O)cc(O)cc2O)cc1` [Compound D-58]?
Answer: IC50 (BTK; first experiment, FIG. 1A): 18.6 µM; IC50 (BTK; second experiment, FIG. 1C): 35.5 µM; IC50 (SYK; first experiment, FIG. 1B): 36.9 µM; IC50 (SYK; second experiment, FIG. 1C): < 10 µM; IC50 [1]: > 200 µM; development of skin edema after UVB exposure (skh-1 mice; 20 mg/kg i.p. daily from day −2 plus 1.5 mg/cm^2 topical, FIG. 7): effectively inhibited; skinfold thickness (skh-1 mice; by 72 hours post irradiation): at baseline control levels
